Data: patent publication US7871978B2, “Bone tropic peptides” (University of Virginia Patent Foundation, priority 2004, dated 2011)
Entries after “also recorded” stand apart in the source; their conditions may differ.

Experiments:
[1] = tested on: Membrane and cytosol fractions from bovine aortic endothelial cells; assay: Affinity chromatography of BAEC fractions on immobilized peptide; assay type: binding; parameters: key to Identification of binding partners by affinity chromatography: BAEC: ✓: Check marks indicate positive binding observed with FITC; −: a dash indicates a negative result; conditions: cell lysates
Protocol: (§1) Membrane and cytosol fractions from human bone marrow endothelial cells and bovine aortic endothelial cells were prepared and used to identify the components from within these fractions that bind to the peptides using affinity chromatography). […] Cell surface nucleolin is present at higher concentrations in actively dividing cells and is down regulated in cells when they become quiescent. Nucleolin is the apparent cell surface receptor of E-coli intimin-gamma. Cell bound intimin has been proposed to trigger a host cell response similar to the extension of filipodia when cells bind to laminin. […] Table 3 provides a summary of peptide-binding partners (putative receptors) identified by affinity chromatography of cell lysates.

[2] = tested on: Membrane and cytosol fractions from human bone marrow endothelial cells; assay: Affinity chromatography of HBME fractions on immobilized peptide; assay type: binding; parameters: key to Identification of binding partners by affinity chromatography: HBME: ✓: Check marks indicate positive binding observed with FITC; −: a dash indicates a negative result; conditions: for Identification of binding partners by affinity chromatography: HBME: cell lysates
Protocol: as §1
Peptide Affinity Column Chromatography: Peptides identified from the phage display experiments in mouse bone and bone marrow were synthesized with an additional three-residue glycine linker and an N-terminal lysine residue. The lysine residue was used to specifically link the peptides to a support. Cell membranes from BMECs were solubilized with triton X-100. The solubilized proteins were passed through the peptide affinity column (total volume, 500 μL) followed by extensive washes with buffer. Retained proteins were eluted either with 100 mM solution of the same peptide as that immobilized on the column or with a wash of 0.1 N HCl-Glycine, pH 2.2. The eluates were analyzed by SDS PAGE and proteins observed in the gels were identified by LC/MS/MS.

D1 cells = assay: Peptide binding to D1 bone marrow mesenchymal cells; conditions: for Binding to D1 cells: FIG. 4; for Binding to cells from the skeleton in vitro: mesenchymal cells from bone marrow (D1), or human bone marrow endothelial cells, avidin-FITC probe
Excerpt: (§2) Bone marrow cells isolated from mouse femur were lifted with ethylenediaminetetraacetic acid (EDTA) and trypsin, resuspended, and allowed to attach on fibronectin-coated chamber slides for Avidin-FITC staining. […] The D1 cell is a multipotential mesenchymal stem-like line that was isolated from bone marrow and shown to have the characteristics of osteoprogenitor cells. This cell line has been well established and used successfully in several in vitro and in vivo studies in our laboratory. Peptide binding to human bone marrow endothelial cells (HBME) and bovine aortic endothelial cells (BAEC) in culture was also tested using the same procedure.
The peptides were ranked based on the frequency with which they occurred in the plaques from which DNA was prepared and sequenced. Four of the sequences (L13, L19, R1, and R3) were synthesized as biotinylated peptide or as the control non biotinylated version of the sequence. […] The cells used in these experiments were mesenchymal cells from bone marrow (D1), or human bone marrow endothelial cells. An avidin-FITC probe detected the biotinylated peptide in areas of the cells in culture representing either extrusions from the cells or at the end of cell processes; structures reminiscent of adhesion plaques or footprints.

[3] = tested on: Bone marrow cells isolated from mouse femur; assay: Peptide binding to bone marrow cells in culture (Avidin-FITC); parameters: key to Localization of peptide binding: Marrow (cells in culture): ✓: Check marks indicate positive binding observed with FITC; −: a dash indicates a negative result; conditions: for Localization of peptide binding: Marrow (cells in culture): FITC; for Binding to adherent cells from bone marrow blowouts: fibronectin-coated chamber slides, Avidin-FITC staining
Protocol: (§3) For localization of peptide binding to cells and tissue sections, biotinylated peptides were synthesized. Fluorescein-isothiocyanate (FITC) labeled Avidin was used to localize the peptides on cells in culture and in tissue sections in vitro by epiluminescence microscopy. In addition, the biotinylated peptides were detected at concentrations as low as 1 μM in slot blots.
as §2

[4] = tested on: prostate cancer cells (CaP); assay: Prostate cancer (CaP) cell adhesion to BMEC, cell line not distinguished; assay type: cell-based; conditions: for Effect on CaP cell adhesion to BMEC: LNCaP compared to C4-2, FIG. 8, preliminary results
Protocol: FIG. 8 is a graphic representation of the effects of various peptides on altering cellular adhesion to BMEC cells in vitro. LNCaP cells were compared directly to C4-2 cells for the ability of specific phage-derived peptides to alter cellular adhesion to BMEC cells in vitro. Adhesion was measured at […]. C=control (no peptide). The ordinate represents percent of acid precipitable counts bound and the abscissa indicated the cells treated and the peptides used.
The phage-derived bone-targeting peptides isolated by biopanning were tested for their ability to alter the adhesion of prostate cancer cells to a human bone marrow endothelial cell line (see FIG. 8). In this assay, LNCaP cells were compared directly to the more metastatic, bone colonizing derivative, C4-2.
This observation will be examined further and exploited by the aims of this proposal to identify the binding partners of nucleolin in prostate cancer cells as well as to investigate bone tropic peptides as potential inhibitors of prostate cancer metastasis.

[5] = tested on: human bone marrow endothelial cells (HBME); assay: Peptide binding to HBME cells in culture (Avidin-FITC); parameters: key: ✓: Check marks indicate positive binding observed with FITC; −: a dash indicates a negative result
Protocol: as §3, §2

[6] = tested on: bone marrow derived mesenchymal stem cells; assay: Microarray gene expression analysis of peptide-treated mesenchymal stem cells; assay type: cell-based; conditions: 100 μM/ml peptide, day 7, microarray
Protocol: For gene analysis, the bone marrow derived mesenchymal stem cells were seeded at 95,000 cells per well in a 6 well plate and maintained in culture media containing 100 μM/ml of each of the 13 peptides. The media were changed every three days. The cells were harvested at day 7, total RNA isolated using the Qiagen RNeasy kit and quantified with a spectrophotometer. After initial screening of the genes with real-time PCR, four peptides were chosen for microarray analysis: L13, L19, R1, and R3 (SEQ ID NOs: 8, 10, 11, and 13, respectively).

Substance | Identification of binding partners by affinity chromatography: BAEC [1] | Identification of binding partners by affinity chromatography: HBME [2] | Binding to D1 cells (D1 cells) | Binding to cells from the skeleton in vitro (D1 cells) | Localization of peptide binding: Marrow (cells in culture) [3] | Binding to adherent cells from bone marrow blowouts [3] | Effect on CaP cell adhesion to BMEC [4] | further results
ASN-SER-MET-ILE-ALA-HIS-ASN-LYS-THR-ARG-MET-HIS-GLY-GLY-GLY-SER (NSMIAHNKTRMHGGGS; listed as Homo sapiens) [Peptide L7] | − | − |  |  |  |  |  | 
SER-GLY-HIS-GLN-LEU-LEU-LEU-ASN-LYS-MET-PRO-ASN-GLY-GLY-GLY-SER (SGHQLLLNKMPNGGGS; listed as Homo sapiens) [Peptide L13] | − | ✓Nucleolin | bind to D1 cells | found to bind cells from the skeleton | ✓ | showed detectable binding | consistent suppression of CaP cell invasion that was saturated at the doses tested; also recorded: inhibits CaP cell adhesion to bone marrow endothelial cells | Concentrations at which peptide inhibits prostate cancer cell adhesion to BMEC ([4]; 50 μM and 100 μM tested): at both 50 μM and 100 μm; Localization of peptide binding: HBME [5]: ✓; Binding partner from HBME / bone marrow endothelial cells ([2]; biotinylated peptide immobilized on avidin-agarose): nucleolin was the major component that binds; Fold Change: Ameloblastin [6]: +3.73 fold; Fold Change: Cartilage link protein 1 [6]: +2.00 fold; Fold Change: Eph receptor A5 [6]: +4.92 fold; Fold Change: Fibronectin 1 [6]: −2.64 fold; Fold Change: Hypothetical protein MGC28705 [6]: +4.59 fold; Fold Change: Neural cell adhesion molecule 2 [6]: +6.96 fold; Fold Change: Procollagen, type I, alpha 1 [6]: +3.03 fold; Fold Change: RIKEN cDNA 2410129E14 gene [6]: +3.03 fold; Fold Change: Syndecan 4 [6]: +3.03 fold; Fold Change: Thyroid hormone receptor alpha [6]: −1.23 fold; Fold Change: v-raf-1 leukemia viral oncogene 1 [6]: +2.46 fold
ASN-TYR-SER-HIS-LEU-ARG-VAL-LYS-LEU-PRO-THR-PRO-GLY-GLY-GLY-SER (NYSHLRVKLPTPGGGS; listed as Homo sapiens) [Peptide R1] |  |  | bind to D1 cells | found to bind cells from the skeleton | ✓ | showed detectable binding | did not show remarkable activity | 
